Activity calls are given as the source filed them.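 Rule for the calls: active = IC50 of 10 µM or lower; inactive = IC50 above 10 µM.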
Molecular target: Mitogen-activated protein kinase kinase kinase 5 (Homo sapiens) (UniProt Q99683)
Assay: MAP3K5 inhibition concentration-response curves – biochemical, AlphaScreen, MKK6 phosphorylation, dose response (AID 1159605);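 note: ASK1 phosphorylation of MKK6 substrate detected with anti-phospho-MKK6 antibody beads; inhibitors lower the luminescent signal by blocking MKK6 phosphorylation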
Conditions: ASK1 MKK6 phosphorylation, AlphaScreen luminescence

Sequence of Mitogen-activated protein kinase kinase kinase 5 (Homo sapiens) (Q99683 whole entry, looked up): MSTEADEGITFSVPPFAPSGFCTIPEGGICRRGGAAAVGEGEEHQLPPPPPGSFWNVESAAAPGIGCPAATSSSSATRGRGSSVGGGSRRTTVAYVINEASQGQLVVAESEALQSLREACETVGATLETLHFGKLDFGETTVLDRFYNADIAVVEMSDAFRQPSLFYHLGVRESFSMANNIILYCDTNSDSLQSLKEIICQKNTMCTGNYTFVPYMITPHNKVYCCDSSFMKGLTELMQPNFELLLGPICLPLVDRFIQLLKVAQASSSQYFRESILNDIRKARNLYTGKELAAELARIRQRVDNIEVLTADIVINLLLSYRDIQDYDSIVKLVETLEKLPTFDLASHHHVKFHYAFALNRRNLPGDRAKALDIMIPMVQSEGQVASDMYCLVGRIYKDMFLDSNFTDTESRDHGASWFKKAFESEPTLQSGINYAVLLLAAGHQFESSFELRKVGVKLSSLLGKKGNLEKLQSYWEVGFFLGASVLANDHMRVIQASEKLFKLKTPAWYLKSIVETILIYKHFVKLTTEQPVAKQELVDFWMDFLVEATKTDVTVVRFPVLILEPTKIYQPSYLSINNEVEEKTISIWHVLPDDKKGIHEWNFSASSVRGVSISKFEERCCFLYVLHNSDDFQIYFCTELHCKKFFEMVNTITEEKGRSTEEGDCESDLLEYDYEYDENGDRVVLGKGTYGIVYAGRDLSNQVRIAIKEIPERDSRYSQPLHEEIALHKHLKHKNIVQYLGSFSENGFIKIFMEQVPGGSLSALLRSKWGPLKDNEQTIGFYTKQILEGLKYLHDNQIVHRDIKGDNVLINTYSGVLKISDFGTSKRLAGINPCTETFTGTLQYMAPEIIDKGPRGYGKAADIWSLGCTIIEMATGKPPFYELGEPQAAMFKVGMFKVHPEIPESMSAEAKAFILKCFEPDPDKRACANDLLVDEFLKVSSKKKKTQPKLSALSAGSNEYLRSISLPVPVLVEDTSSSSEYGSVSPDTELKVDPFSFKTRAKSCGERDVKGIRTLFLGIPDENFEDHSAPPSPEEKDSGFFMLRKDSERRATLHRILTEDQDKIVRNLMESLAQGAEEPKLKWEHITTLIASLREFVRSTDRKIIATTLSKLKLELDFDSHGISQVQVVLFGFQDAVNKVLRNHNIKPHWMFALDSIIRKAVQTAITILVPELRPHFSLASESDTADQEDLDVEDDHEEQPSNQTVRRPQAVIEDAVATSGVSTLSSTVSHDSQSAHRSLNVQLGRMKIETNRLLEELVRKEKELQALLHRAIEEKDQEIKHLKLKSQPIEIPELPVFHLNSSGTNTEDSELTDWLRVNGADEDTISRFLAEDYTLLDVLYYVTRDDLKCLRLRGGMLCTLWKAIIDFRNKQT

| SMILES | IC50 |
| --- | --- |
| c1ccc2c(c1)CCN(c1nccc(Nc3ccc(N4CCOCC4)cc3)n1)C2 | inactive |
| Oc1ccc(CCNc2nc(NC3CCN(Cc4ccccc4)CC3)nc3c2ncn3Cc2ccc(C(F)(F)F)cc2)cc1 | inactive |
| COc1cc2nc(Nc3cccc(N(C)C)c3)nc(Nc3ccc(N4CCOCC4)cc3)c2cc1OC | > 19.9 µM (inactive) |
| COc1ccc(CCNc2nc(Nc3ccc(N4CCOCC4)cc3)nc3c2ncn3-c2ccsc2)cc1 | 9.53 µM |
| CC(C)n1cnc2c(Nc3ccc4c(c3)OCO4)nc(NCc3ccc4c(c3)OCO4)nc21 | inactive |
| c1cncc(CNc2nc(Nc3ccc(N4CCOCC4)cc3)nc3c2ncn3C2CCCCC2)c1 | > 20.1 µM (inactive) |
| COc1cc(Nc2nc(N3CCc4ccccc4C3)nc3c2ncn3C(C)C)cc(OC)c1OC | > 20.1 µM (inactive) |
| COc1cc(Nc2nc(-c3ccc(C(N)=O)cc3)nc3c2ncn3C2CCCCC2)cc(OC)c1OC | inactive |
| c1cc(Nc2ccc3c(c2)OCO3)nc(N2CCN(Cc3ccc4c(c3)OCO4)CC2)n1 | > 20.1 µM (inactive) |
| c1cn(-c2ccc(Nc3nc4ncnc(Nc5ccc6c(c5)OCO6)c4[nH]3)cc2)cn1 | > 21.9 µM (inactive) |
| FC(F)(F)c1ccc(Cn2cnc3c(NCc4ccccc4)nc(-c4ccc(N5CCOCC5)nc4)nc32)cc1 | > 19.9 µM (inactive) |
| O=C(Nc1ccc(-c2ncnc3[nH]ccc23)cc1)C1COc2ccccc2O1 (centres undefined) | > 19.2 µM (inactive) |
| COc1cc2nc(Nc3cccc(N(C)C)c3)nc(NCc3cccc(C(F)(F)F)c3)c2cc1OC | > 18.9 µM (inactive) |
| CCCNc1nc(Nc2ccc(N3CCOCC3)cc2)nc2c1ncn2C1CCCCC1 | inactive |
| COc1cc2nc(Nc3cccc(N(C)C)c3)nc(Nc3ccc4c(c3)OCO4)c2cc1OC | 6.21 µM |
| c1ccc(CN2CCC(Nc3nc(Nc4ccc(N5CCOCC5)cc4)nc4nc[nH]c34)CC2)cc1 | > 19.7 µM (inactive) |
| FC(F)(F)c1ccc(Cn2cnc3c(Nc4ccc5c(c4)OCO5)nc(NC4CCN(Cc5ccccc5)CC4)nc32)cc1 | > 20.5 µM (inactive) |
| COc1cc2nc(Nc3cccc(N(C)C)c3)nc(NCCOc3ccccc3)c2cc1OC | > 20.4 µM (inactive) |
| CC(C)n1cnc2c(NCc3cccc(C(F)(F)F)c3)nc(Nc3ccc(N4CCOCC4)cc3)nc21 | 5.42 µM |
| CC(C)CNC(=O)c1ccc2c(c1)CC(c1nc3ncc(-c4ccnc(N)n4)cc3[nH]1)CO2 (centres undefined) | > 19.2 µM (inactive) |
| CN(C)c1cccc(Nc2nc(Nc3ccc(N4CCOCC4)cc3)c3[nH]cnc3n2)c1 | inactive |

| SMILES | IC50 |
| --- | --- |
| CC(C)n1cnc2c(Nc3ccc(Oc4ccccc4)cc3)nc(N3CCOCC3)nc21 | inactive |
| Cc1cnc(-c2cccc(N)c2)nc1Nc1ccc(N2CCOCC2)cc1 | inactive |
| COc1cc2nc(Nc3ccc(-n4ccnc4)cc3)nc(Nc3ccc4c(c3)OCO4)c2cc1OC | > 20 µM (inactive) |
| CN(C)c1cccc(Nc2cc(Nc3ccccc3)ncn2)c1 | > 22.2 µM (inactive) |
| CN(C)c1cccc(Nc2nc(NCCc3ccc(O)cc3)c3ncn(-c4ccccc4)c3n2)c1 | > 20 µM (inactive) |
| FC(F)(F)c1cccc(CNc2nc(N3CCN(c4ccccn4)CC3)nc3c2ncn3-c2ccsc2)c1 | > 20 µM (inactive) |
| Cc1cc(NCc2cccc(C(F)(F)F)c2)nc(Nc2cccc(N(C)C)c2)n1 | > 20.1 µM (inactive) |
| c1ccc2c(-c3nccc(Nc4ccc(N5CCOCC5)cc4)n3)csc2c1 | > 21.8 µM (inactive) |
| COc1cc(Nc2nc(-c3c(C)noc3C)nc3c2ncn3Cc2ccc(C(F)(F)F)cc2)cc(OC)c1OC | > 27.5 µM (inactive) |
| c1ccc(Oc2ccc(Nc3nc(N4CCc5ccccc5C4)nc4c3ncn4-c3ccccc3)cc2)cc1 | > 20 µM (inactive) |
| c1ccc(CCn2ncc(-c3ccnc(Nc4ccc(N5CCOCC5)cc4)c3)c2Nc2ccccc2)cc1 | > 19.2 µM (inactive) |
| NC(=O)c1cc2ccccc2cc1Nc1ccnc(Nc2ccc(N3CCOCC3)cc2)c1 | > 19.2 µM (inactive) |
| FC(F)(F)c1cccc(CNc2ccnc(Nc3ccc(N4CCOCC4)cc3)n2)c1 | inactive |
| CCN(CC)c1nc(Nc2ccc3c(c2)OCO3)nc(N2CCC(N3CCOCC3)CC2)n1 | inactive |
| Cc1ncn(-c2ccc(Nc3nccc(-c4cc(F)cc(-c5cn[nH]c5C)c4)n3)cc2)n1 | > 19.2 µM (inactive) |
| Oc1ccc(CCNc2nc(N3CCN(c4ccccn4)CC3)nc3c2ncn3-c2ccsc2)cc1 | > 21.3 µM (inactive) |
| FC(F)(F)c1ccc(Cn2cnc3c(Nc4ccc5c(c4)OCO5)nc(Nc4ccc(N5CCOCC5)cc4)nc32)cc1 | 5.36 µM |
| c1cnc2ccc(Nc3nc(Nc4ccc(N5CCOCC5)cc4)c4[nH]cnc4n3)cc2c1 | inactive |
| c1ccc(-n2cnc3c(Nc4ccc(N5CCOCC5)cc4)nc(Nc4cccnc4)nc32)cc1 | > 15.9 µM (inactive) |
| c1ccc(N2CCN(c3nc(Nc4ccc(N5CCOCC5)cc4)c4ncn(C5CCCCC5)c4n3)CC2)nc1 | > 22.8 µM (inactive) |
| Cc1n[nH]c(C)c1-c1cc(F)cc(-c2ccnc(Nc3ccc(-n4cnc(N5CCOCC5)n4)cc3)n2)c1 | > 19.2 µM (inactive) |

| SMILES | IC50 |
| --- | --- |
| COc1cc2nc(Nc3ccc(N4CCOCC4)cc3)nc(Nc3cc(OC)c(OC)c(OC)c3)c2cc1OC | inactive |
| Cc1[nH]ncc1-c1ccc2nc(NC(=O)C3COc4ccc(F)cc4C3)sc2c1 (centres undefined) | > 19.2 µM (inactive) |
| NC(=O)c1ccc(-c2nc(NCc3cccc(C(F)(F)F)c3)c3ncn(Cc4ccc(C(F)(F)F)cc4)c3n2)cc1 | > 17.3 µM (inactive) |
| Cc1cc(Nc2ccc3c(c2)OCO3)nc(Nc2cccc(N(C)C)c2)n1 | 5.32 µM |
| COc1cc2nc(Nc3ccc(N4CCOCC4)cc3)nc(NCc3cccc(C(F)(F)F)c3)c2cc1OC | > 20.1 µM (inactive) |
| CN(C)c1cccc(Nc2nccc(Nc3ccc4c(c3)OCO4)n2)c1 | inactive |
| CC(=O)c1cccc(-c2nc(NCc3ccccc3)c3ncn(Cc4ccc(C(F)(F)F)cc4)c3n2)c1 | > 19.2 µM (inactive) |
| COc1cc2nc(Nc3nccc4ccccc34)nc(Nc3ccc(NC(C)=O)cc3)c2cc1OC | inactive |
| c1ccc(OCCNc2nc(Nc3ccc(-n4ccnc4)cc3)nc3c2ncn3C2CCCCC2)cc1 | inactive |
| Cc1cccc(Nc2ccc3c(cnn3-c3cccc(C(=O)NCCN4CCNCC4)c3)c2)c1Cl | > 19.2 µM (inactive) |
| CC(C)n1cnc2c(NCc3cccc(C(F)(F)F)c3)nc(N3CCN(Cc4ccc5c(c4)OCO5)CC3)nc21 | 8.82 µM |
| COc1cc2nc(Nc3ccc(N4CCOCC4)cc3)nc(NCCOc3ccccc3)c2cc1OC | inactive |
| c1ccc(CN2CCC(Nc3nc(N4CCN(Cc5ccc6c(c5)OCO6)CC4)nc4c3ncn4C3CCCCC3)CC2)cc1 | inactive |
| Cc1cc(NCCc2ccc(O)cc2)nc(N2CCN(Cc3ccc4c(c3)OCO4)CC2)n1 | > 18.1 µM (inactive) |
| c1ccc(CCn2nc(-c3ccnc(Nc4ccc(N5CCOCC5)cc4)c3)cc2Nc2ccccc2)cc1 | > 19.2 µM (inactive) |
| O=c1[nH]cccc1-c1ccc(Nc2nccc(-c3ccc4nc(C5CC5)[nH]c(=O)c4c3)n2)cc1 | > 19.2 µM (inactive) |
| COc1cc(Nc2nc(-c3ccc(C(N)=O)cc3)ncc2C)cc(OC)c1OC | inactive |
| CC(C)n1c(-c2ccc(C(N)=O)cc2)nc2c(Nc3ccc(Oc4ccccc4)cc3)ncnc21 | > 20 µM (inactive) |
| COc1cc2nc(Nc3cccc(N(C)C)c3)nc(Nc3ccc(NC(C)=O)cc3)c2cc1OC | 7.74 µM |
| FC(F)(F)c1ccc(Cn2cnc3c(NCc4cccc(C(F)(F)F)c4)nc(Nc4ccc5ncccc5c4)nc32)cc1 | > 19.8 µM (inactive) |
| FC(F)(F)c1ccc(Cn2cnc3c(Nc4ccc(N5CCOCC5)cc4)nc(N4CCN(c5ccccn5)CC4)nc32)cc1 | > 20 µM (inactive) |

| SMILES | IC50 |
| --- | --- |
| COc1ccc(CCNc2nc(Nc3ccc(N4CCOCC4)cc3)nc3c2ncn3Cc2ccc(C(F)(F)F)cc2)cc1 | 5.3 µM |
| COc1cc2nc(Nc3cccc(N(C)C)c3)nc(Nc3ccccc3)c2cc1OC | inactive |
| c1cc(-c2ccc3[nH]ncc3c2)nc(Nc2ccc(N3CCOCC3)cc2)n1 | > 19.2 µM (inactive) |
| CC(C)n1cnc2c(NC3CCN(Cc4ccccc4)CC3)nc(Nc3cccc(N(C)C)c3)nc21 | > 21.5 µM (inactive) |
| COc1cc2nc(Nc3ccncc3)nc(Nc3ccc(N4CCOCC4)cc3)c2cc1OC | inactive |
| COc1cc(NC(=O)c2cccc(-n3cc(NC(=O)Nc4c(C)cccc4Cl)cn3)c2)cc(OC)c1OC | > 19.2 µM (inactive) |
| O=C(NCCN1CCOCC1)c1cccc(-n2ncc3cc(Nc4c(F)cccc4[N+](=O)[O-])ccc32)c1 | > 19.2 µM (inactive) |
| c1cc(-n2cnc3c(Nc4ccc5c(c4)OCO5)nc(N4CCN(Cc5ccc6c(c5)OCO6)CC4)nc32)cs1 | > 19.9 µM (inactive) |
| Cc1cc(NC2CCN(Cc3ccccc3)CC2)nc(Nc2ccc(N3CCOCC3)cc2)n1 | inactive |
| COc1cc2nc(Nc3ccc(N4CCOCC4)cc3)nc(NCc3ccccc3)c2cc1OC | > 20 µM (inactive) |
| Cc1cc(Nc2ccc(N3CCOCC3)cc2)nc(N2CCN(Cc3ccc4c(c3)OCO4)CC2)n1 | inactive |
| COc1cc2nc(Nc3ccc4ncccc4c3)nc(Nc3ccc(NC(C)=O)cc3)c2cc1OC | > 20 µM (inactive) |
| COc1ccc(-c2ncn(-c3ccc(Nc4nccc(-c5cc(C#N)cc(N6CCNCC6)c5)n4)cc3)n2)cn1 | > 19.2 µM (inactive) |
| c1ccc(-n2cnc3c(NCc4cccnc4)nc(Nc4ccc(N5CCOCC5)cc4)nc32)cc1 | inactive |
| NC(=O)c1ccc(-c2nc(NCc3cccc(C(F)(F)F)c3)c3ncn(-c4ccccc4)c3n2)cc1 | > 18 µM (inactive) |
| Cc1c[nH]c2ncnc(-c3ccc(NC(=O)Nc4ccccc4)cc3)c12 | > 19.2 µM (inactive) |
| Cn1ccc2cc(-c3cc(Nc4ccc(N5CCOCC5)cc4)nc(N)n3)ccc21 | > 20 µM (inactive) |
| FC(F)(F)c1ccc(Cn2cnc3c(Nc4ccc5c(c4)OCO5)nc(N4CCN(c5ccccn5)CC4)nc32)cc1 | > 20 µM (inactive) |
| COc1ccc(-c2nc(C)cc(Nc3ccc(N4CCOCC4)cc3)n2)cc1 | 9.06 µM |
| COc1cc(NC(=O)c2cccc(-n3cc(NC(=O)Nc4ccc(-c5ccccc5)cc4)cn3)c2)cc(OC)c1OC | > 19.2 µM (inactive) |
| COc1ccc(CCNc2nc(Nc3ccc(N4CCOCC4)cc3)ncc2C)cc1 | inactive |

From PubChem BioAssay AID1159605 (The Scripps Research Institute Molecular Screening Center, 2016)
